System: resting carbohydrate metabolism
Test: Resting metabolism by indirect calorimetric measurement in patients after pulsed IV insulin boluses with oral carbohydrate load
Format: in vivo, human
Source text: A basic treatment sequence, in one preferred embodiment, is as follows. • Settle the patient and establish an intravenous (IV) flow. • Measure blood glucose. • From Table 1, arrange for the specified grams of glucose be made available to the patient. • Have the patient consume the glucose relatively quickly (time scale of minutes). Drinking an appropriate amount of GLUCOLA at a convenient rate, such as over about 30 to 90 seconds, is a useful range and route of administration. • Start IV boluses of hormone. Insulin is a useful and typical hormone for this application. • Administer hormone at the selected quantity, rate, and pattern. These details are discussed in more detail in the following sections. A typical sequence will administer the selected amount of insulin (milliunits, determined as per kilogram body weight of the patient). A useful bolus is fairly quick, such as less than five seconds. Bolus injections are repeated periodically. A useful scheme is to give boluses every six minutes, over the course of one hour. It can be useful to give boluses more rapidly. Every four minutes is a useful number. Spacing of approximately three to approximately ten minutes can be useful, and we have not tested the outer ranges of usefulness.
One useful way of assessing metabolic activity and health is to measure the volume of Carbon Dioxide Production and a […]. In example (a) below, CO2 production initially equals 0.124 L per 30 seconds of exhaled breath, with a Resting Energy Ratio of 0.66. The ratio is how one can test the amount of carbohydrate metabolized and thus producing ATP to verify the patient is metabolizing carbohydrates. Below […] is lipid metabolism, and above […] is carbohydrate metabolism.
It is useful for the metabolic assessment of the present invention to express exhaled CO2 in volume/time, such as L/30 sec. This assessment varies by patient, according to their size, lung capacity and other factors understood by one skilled in the art of pulmonary function and metabolism.
A useful tool for assessing this is from Vacuumed. The Vacuumed website (www) vacuumed (corn) includes a good discussion of the resting metabolism measurement. • VO2=oxygen uptake (ml/min) • VCO2=carbon dioxide output (ml/min) • Respiratory quotient (RQ)=VCO2/VO2
• a. The treatment form has 3 one-hour sessions with from 10 to 60 minutes rest between treatments. • b. TREATMENT GOAL: The goal of the treatment is to obtain increased ATP production from carbohydrates, by metabolizing approximately 100 g of glucose for each hour including the rest period. A desirable treatment blood glucose for oral carbohydrates is 150 mg/dl or 8.3 mmol/L of blood glucose. That equates to approximately 380 calories of carbohydrates for each 1-hour treatment session, or a total of 1,140 calories total for the 4.5 to 5.5 hours. • c. In one embodiment, patients' serum glucose level is monitored every thirty minutes to determine carbohydrate uptake and utilization. Resting metabolic measurement by an indirect calorimeter such as the Vacuumed Metabolic Measurement system provides the level of production of ATP from carbohydrates to validate the increase. • d. In order to maintain serum glucose levels sufficient to provide for a carbohydrate load for the production of ATP, the serum glucose is maintained at 150 mg/dl or 8.3 mmol/L or more by starting at 10 milliunits per kilo and increasing by 2 milliunits each 30 minutes until the desired level is achieved. This level is constantly adjusted each 30 minutes until the nominal load is obtained, and then continues for the remainder of the treatment, and is used for subsequent treatments.
a. In a preferred implementation, these patients: • i. Were checked for serum blood glucose (BG) about every 30 minutes, and for about 4.5 hours. • ii. Were given glucose averaging approximately 1,200 calories over that time. • iii. […]

## insulin
Person with Alzheimer's Disease, 83 kg, three one-hour sessions, total 33 units insulin, 14 milliunits/kg
  increase in ATP from carbohydrates: approximately 38%
Person with Alzheimer's Disease, 83 kg, three one-hour sessions, total 33 units insulin, 14 milliunits/kg, baseline 0.151
  Carbon Dioxide Production after treatment: 0.208 L per 30 seconds
Person with Alzheimer's Disease, 83 kg, three one-hour sessions, total 33 units insulin, 14 milliunits/kg, baseline 0.79
  Resting Energy Ratio after treatment: 0.99
person, 50.5 kg, three one-hour sessions, total 42 units insulin, 28 milliunits/kg
  increase in ATP from carbohydrates: approximately 280%
person, 50.5 kg, three one-hour sessions, total 42 units insulin, 28 milliunits/kg, baseline 0.121
  Carbon Dioxide Production after treatment: 0.342 L per 30 seconds
person, 50.5 kg, three one-hour sessions, total 42 units insulin, 28 milliunits/kg, baseline 0.67
  Resting Energy Ratio after treatment: 0.98
person, 70 kg, three one-hour sessions, total 45 units insulin, 22 milliunits/kg
  increase in ATP from carbohydrates: approximately 320%
person, 70 kg, three one-hour sessions, total 45 units insulin, 22 milliunits/kg, baseline 0.091
  Carbon Dioxide Production after treatment: 0.293 L per 30 seconds
person, 70 kg, three one-hour sessions, total 45 units insulin, 22 milliunits/kg, baseline 0.63
  Resting Energy Ratio after treatment: 0.98
person, 85 kg, three one-hour sessions plus rest cycles, total 63 units insulin, 25 milliunits/kg, baseline 0.124
  Carbon Dioxide Production after treatment: 0.255 L per 30 seconds
person, 85 kg, three one-hour sessions, total 63 units insulin, 25 milliunits/kg
  increase in ATP from carbohydrates: approximately 205%
person, 85 kg, three one-hour sessions, total 63 units insulin, 25 milliunits/kg, baseline 0.66
  Resting Energy Ratio after treatment: 0.96
